Laboratory results taken from patent publication US20200325177A1, “METHODS OF MAKING STREPTOGRAMIN COMPOSITIONS AND THE USE THEREOF” (THE REGENTS OF THE UNIVERSITY OF CALIFORNIA, priority 2017, published 2020).
≈ marks a conversion by molar mass, not a printed value. Where two headings read alike, the source gives them in different places.

What was measured:
Type in all cases: cell-based
Gram-Negative Organisms = experiment: microbe, parasite or virus in culture
H. influenzae ATCC 49247 = experiment: MIC, Gram-negative bacteria: H. influenzae ATCC 49247; conditions: Haemophilus influenzae, ATCC49247, read-out: Minimal Inhibitory Concentration (MIC) H. influenzae ATCC 49247
S. pneumoniae = experiment: MIC, Gram-positive bacteria: S. pneumoniae; conditions: Streptococcus pneumoniae, column 10, read-out: Minimal Inhibitory Concentration (MIC) S. pneumoniae
[1] = system: K. pneumoniae multidrug-resistant; experiment: MIC, Gram-negative bacteria: K. pneumoniae multidrug-resistant; conditions: Klebsiella pneumoniae, read-out: Minimal Inhibitory Concentration (MIC) K. pneumoniae multidrug-resistant
P. aeruginosa ATCC 27853 = experiment: MIC, Gram-negative bacteria: P. aeruginosa ATCC 27853; conditions: Pseudomonas aeruginosa, ATCC27853, read-out: Minimal Inhibitory Concentration (MIC) P. aeruginosa ATCC 27853
[2] = system: S. aureus Vat A streptogramin; experiment: MIC, Gram-positive bacteria: S. aureus Vat A streptogramin; conditions: Staphylococcus aureus; Gram-positive; column 5; read-out: Minimal Inhibitory Concentration (MIC) S. aureus Vat A streptogramin
E. faecalis = experiment: MIC, Gram-positive bacteria: E. faecalis; conditions: Enterococcus faecalis, column 1, read-out: Minimal Inhibitory Concentration (MIC) E. faecalis
S. aureus = experiment: MIC, Gram-positive bacteria: S. aureus (strains not named); conditions: Staphylococcus aureus, read-out: Minimal Inhibitory Concentration (MIC) S. aureus
[3] = system: S. aureus Linezolid-resistant; cfr; experiment: MIC, Gram-positive bacteria: S. aureus Linezolid-resistant; cfr; conditions: Staphylococcus aureus, column 9, read-out: Minimal Inhibitory Concentration (MIC) S. aureus Linezolid-resistant
E. faecium VRE; vanA = experiment: MIC, Gram-positive bacteria: E. faecium VRE; vanA; conditions: Enterococcus faecium, column 3, read-out: Minimal Inhibitory Concentration (MIC) E. faecium VRE
[4] = system: P. aeruginosa MDR clinical isolate; experiment: MIC, Gram-negative bacteria: P. aeruginosa MDR clinical isolate; conditions: Pseudomonas aeruginosa, read-out: Minimal Inhibitory Concentration (MIC) P. aeruginosa MDR clinical isolate
E. faecium ATCC 35667 = experiment: MIC, Gram-positive bacteria: E. faecium ATCC 35667; conditions: Enterococcus faecium, ATCC35667, column 2, read-out: Minimal Inhibitory Concentration (MIC) E. faecium ATCC 35667
[5] = Acinetobacter baumannii, ATCC19606, read-out: Minimal Inhibitory Concentration (MIC), A. baumannii ATCC 19606
[6] = Escherichia coli, ATCC25922, read-out: Minimal Inhibitory Concentration (MIC), E. coli ATCC 25922
[7] = Escherichia coli, read-out: Minimal Inhibitory Concentration (MIC), E. coli BAS2006, OMP C, OMP F
[8] = Escherichia coli, read-out: Minimal Inhibitory Concentration (MIC), E. coli olC efflux defective
[9] = Escherichia coli, read-out: Minimal Inhibitory Concentration (MIC), E. coli permeability mutant BAS1314, IMP4213ZAB::TN10
[10] = Escherichia coli, read-out: Minimal Inhibitory Concentration (MIC), E. coli ΔompC768, KanR insert
[11] = Klebsiella pneumoniae, ATCC43816, read-out: Minimal Inhibitory Concentration (MIC), K. pneumoniae ATCC 43816
[12] = first unnamed S. aureus column (c4)
[13] = fourth unnamed S. aureus column (c8)
[14] = second unnamed S. aureus column (c6)
[15] = third unnamed S. aureus column (c7)

SMILES	MIC (Gram-Negative Organisms; [5]) [µg/mL]	MIC (Gram-Negative Organisms; [6]) [µg/mL]	MIC (Gram-Negative Organisms; [7]) [µg/mL]	MIC (Gram-Negative Organisms; [8]) [µg/mL]	MIC (Gram-Negative Organisms; [9]) [µg/mL]	MIC (Gram-Negative Organisms; [11]) [µg/mL]	MIC (H. influenzae ATCC 49247) [µg/mL]	MIC (S. pneumoniae) [µg/mL]	MIC [1] [µg/mL]	MIC (P. aeruginosa ATCC 27853) [µg/mL]	MIC [2] [µg/mL]	MIC (E. faecalis) [µg/mL]	MIC (S. aureus; [12]) [µg/mL]	MIC (S. aureus; [13]) [µg/mL]	MIC (S. aureus; [14]) [µg/mL]	MIC (S. aureus; [15]) [µg/mL]	MIC [3] [µg/mL]	MIC (E. faecium VRE; vanA) [µg/mL]	MIC [4] [µg/mL]	MIC (E. faecium ATCC 35667) [µg/mL]	also measured
CC1=C\[C@@H](O)CC(=O)Cc2nc(co2)C(=O)N[C@H](CCCCN)C(=O)O[C@H](C(C)C)[C@H](C)/C=C/C(=O)NC\C=C\1 [SA0202094]	> 64	> 64	> 64	> 64	32 (≈ 57.3 µM)	> 64	> 64	> 64	> 64	> 64	> 64	> 64	> 64	> 64	> 64	> 64	> 64	> 64	> 64	> 64	MIC (Gram-Negative Organisms; [10]): > 64 µg/mL
CC1=C\[C@@H](O)CC(=O)Cc2nc(co2)C(=O)N2CCC[C@@H]2C(=O)O[C@H]([C@@H](C)COC(=O)Nc2csc(C)n2)[C@H](C)/C=C/C(=O)NC\C=C\1 [SA0110098]	> 64	> 64	16 (≈ 23.4 µM)	2 (≈ 2.92 µM)	8 (≈ 11.7 µM)	> 64	32 (≈ 46.8 µM)	16 (≈ 23.4 µM)	> 64	> 64	> 64	> 64	64 (≈ 93.6 µM)	32 (≈ 46.8 µM)	32 (≈ 46.8 µM)	64 (≈ 93.6 µM)	> 64	64 (≈ 93.6 µM)	> 64	16 (≈ 23.4 µM)	
CC1=C\[C@@H](O)CC(=O)Cc2nc(co2)C(=O)N2CCC[C@@H]2C(=O)O[C@H]([C@@H](C)COC(=O)Nc2ccnc(Br)c2)[C@H](C)/C=C/C(=O)NC\C=C\1 [SA0110081]	> 64	> 64	32 (≈ 43.1 µM)	4 (≈ 5.39 µM)	32 (≈ 43.1 µM)	> 64	> 64	32 (≈ 43.1 µM)	> 64	> 64	> 64	> 64	> 64	32 (≈ 43.1 µM)	> 64	> 64	> 64	> 64	> 64	32 (≈ 43.1 µM)	
CC1=C\[C@@H](O)CC(=O)Cc2nc(co2)C(=O)N[C@H](Cc2ccccc2)C(=O)O[C@H](C(C)C)[C@H](C)/C=C/C(=O)NC\C=C\1 [SA0202061]	> 64	> 64	16 (≈ 27.7 µM)	4 (≈ 6.92 µM)	4 (≈ 6.92 µM)	> 64	> 64	16 (≈ 27.7 µM)	> 64	> 64	64 (≈ 111 µM)	32 (≈ 55.4 µM)	64 (≈ 111 µM)	64 (≈ 111 µM)	64 (≈ 111 µM)	64 (≈ 111 µM)	> 64	64 (≈ 111 µM)	> 64	32 (≈ 55.4 µM)	
CC1=C\[C@@H](O)CC(=O)Cc2nc(co2)C(=O)N2CCC[C@@H]2C(=O)O[C@H]([C@H](C)COC(=O)Nc2cccnc2)[C@H](C)/C=C/C(=O)NC\C=C\1 [SA0110205]	> 64	> 64	> 64	8 (≈ 12.1 µM)	16 (≈ 24.1 µM)	> 64	32 (≈ 48.2 µM)	32 (≈ 48.2 µM)	> 64	> 64	> 64	> 64	> 64	> 64	> 64	> 64	> 64	64 (≈ 96.4 µM)	> 64	32 (≈ 48.2 µM)	MIC (Gram-Negative Organisms; [10]): > 64 µg/mL
CC1=C\[C@@H](O)CC(=O)Cc2nc(co2)C(=O)N2CCC[C@@H]2C(=O)O[C@H]([C@@H](C)COC(=O)Nc2cccnc2)[C@H](C)/C=C/C(=O)NC\C=C\1 [SA0110067]	> 64	> 64	64 (≈ 96.4 µM)	8 (≈ 12.1 µM)	32 (≈ 48.2 µM)	> 64	> 64	32 (≈ 48.2 µM)	> 64	> 64	> 64	> 64	> 64	64 (≈ 96.4 µM)	> 64	> 64	> 64	> 64	> 64	32 (≈ 48.2 µM)	
CC1=C\[C@@H](O)CC(=O)Cc2nc(co2)C(=O)N2CCC[C@@H]2C(=O)O[C@H]([C@H](C)COC(=O)Nc2cc(C)on2)[C@H](C)/C=C/C(=O)NC\C=C\1 [SA0110225]	> 64	> 64	> 64	4 (≈ 5.99 µM)	8 (≈ 12 µM)	> 64	16 (≈ 24 µM)	32 (≈ 47.9 µM)	> 64	> 64	> 64	> 64	> 64	64 (≈ 95.8 µM)	64 (≈ 95.8 µM)	> 64	> 64	64 (≈ 95.8 µM)	> 64	32 (≈ 47.9 µM)	MIC (Gram-Negative Organisms; [10]): > 64 µg/mL
C[C@H]1COc2c(N3CCN(C)CC3)c(F)cc3c(=O)c(C(=O)O)cn1c23 [levofloxacin]	0.25 (≈ 0.692 µM)	0.015 (≈ 0.0415 µM)				0.03 (≈ 0.083 µM)	0.03 (≈ 0.083 µM)	0.5 (≈ 1.38 µM)	1 (≈ 2.77 µM)	2 (≈ 5.53 µM)	1 (≈ 2.77 µM)	1 (≈ 2.77 µM)	0.25 (≈ 0.692 µM)	2 (≈ 5.53 µM)	0.12 (≈ 0.332 µM)	0.25 (≈ 0.692 µM)	8 (≈ 22.1 µM)	> 8	> 8	4 (≈ 11.1 µM)	MIC (Gram-Negative Organisms; [10]): 0.015 µg/mL (≈ 0.0415 µM)
